Legend:
[1] = molecular target: T1, Human immunodeficiency virus type 1 integrase (Human immunodeficiency virus 1, UniProt Q7ZJM1); assay: Inhibition of Human immunodeficiency virus 1 integrase strand transfer activity after 30 mins by polyacrylamide gel electrophoresis
[2] = molecular target: T1, Human immunodeficiency virus type 1 integrase; assay: Inhibition of Human immunodeficiency virus 1 integrase-mediated 3'-processing after 30 mins by polyacrylamide gel electrophoresis
PBMC = assay: Cytotoxicity against human PBMC; format: cell-based
[3] = test system: Human immunodeficiency virus 1; assay: Antiviral activity against Human immunodeficiency virus 1 infected in human PBMC assessed as inhibition of viral replication after 5 days by RT-PCR method; format: functional, organism-based; settings: Human immunodeficiency virus 1, 120 h
Vero = assay: Cytotoxicity against african green monkey Vero cells; format: cell-based; settings: Chlorocebus sabaeus
CCRF-CEM = assay: Cytotoxicity against human CEM cells; format: cell-based
[4] = molecular target: Human immunodeficiency virus type 1 integrase (Human immunodeficiency virus 1) (UniProt Q7ZJM1); assay: Selectivity ratio of IC50 for Human immunodeficiency virus 1 integrase-mediated 3'-processing to IC50 for Human immunodeficiency virus 1 integrase strand transfer activity
Sequence of Human immunodeficiency virus type 1 integrase (Human immunodeficiency virus 1) (Q7ZJM1 as listed by the source): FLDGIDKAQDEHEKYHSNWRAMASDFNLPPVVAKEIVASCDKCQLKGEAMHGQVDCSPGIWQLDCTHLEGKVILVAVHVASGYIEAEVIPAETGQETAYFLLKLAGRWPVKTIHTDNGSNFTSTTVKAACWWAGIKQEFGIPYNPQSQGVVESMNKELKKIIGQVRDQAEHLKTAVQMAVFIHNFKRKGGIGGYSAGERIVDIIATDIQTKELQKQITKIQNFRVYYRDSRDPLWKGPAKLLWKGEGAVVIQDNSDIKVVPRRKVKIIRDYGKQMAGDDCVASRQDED

T1 sequence (Q7ZJM1 whole entry): as the sequence (Q7ZJM1 as listed by the source) above

Row | Compound | IC50 [1] [µM] | IC50 [2] [µM] | IC50 (PBMC) [µM] | EC50 [3] [µM] | IC50 (Vero) [µM] | IC50 (CCRF-CEM) [µM] | Ratio IC50 [4]
1 | O=C(O)C(=O)CC(=O)c1ccc2ccc3c(F)cccc3c2c1 | 3 | 11 |  |  |  |  | 
2 | Cc1cn([C@H]2C[C@H](N=[N+]=[N-])[C@@H](CO)O2)c(=O)[nH]c1=O [ZIDOVUDINE] |  |  | > 100 |  |  |  | 
3 | O=C(O)C(=O)CC(=O)c1ccc2ccc3cc(F)ccc3c2c1F | 8 | 63 |  |  |  |  | 
4 | O=C(O)C(=O)CC(=O)c1ccc2c(ccc3ccc(Cl)cc32)c1 | 1.3 | 5 | 4 | 27.5 | 4.5 | 13.1 | 
5 | O=C(O)C(=O)CC(=O)c1ccc2c(ccc3cc(Cl)ccc32)c1 | 1.4 | 12 | 14.1 | 20.9 | 7.2 | 12.1 | 9
6 | COc1ccc2c(c1)cc(C(=O)CC(=O)C(=O)O)c1ccccc12 | 3 | 32 |  |  |  |  | 
7 | O=C(O)C(=O)CC(=O)c1ccc2c(ccc3c(F)cccc32)c1 | 4 | 35 |  |  |  |  | 
8 | COc1ccc2c(c1)cc(C(=O)CC(=O)C(=O)O)c1c(F)cccc12 | 6 | 44 |  |  |  |  | 
9 | O=C(O)C(=O)CC(=O)c1ccc2ccc3c(Cl)cccc3c2c1 | 1.2 | 11 |  |  |  |  | 
10 | O=C(O)C(=O)CC(=O)c1ccc2ccc3ccccc3c2c1F | 63 | 83 |  |  |  |  | 
11 | O=C(O)C(=O)CC(=O)c1ccc2c(ccc3c(Cl)cccc32)c1 | 4 | 19 |  |  |  |  | 

— ChEMBL document CHEMBL2440103, “Synthesis, docking, and biological studies of phenanthrene β-diketo acids as novel HIV-1 integrase inhibitors” (Bioorg Med Chem Lett, 2013)
